PMC10718076, “1,2-Disubstituted bicyclo[2.1.1]hexanes as saturated bioisosteres of ortho-substituted benzene” (Chemical Science, 2023)

Assay: Metabolic stability in human liver microsomes
Conditions: both; for microsomal CLint at 2 μM / microsomal CLint at 2 µM: pH 7.4; for remaining at 40 min, 2 µM: Mean of 2, 40 min; for remaining at 25 min, 2 µM: Mean of 2, 25 min
[1] = human liver microsomes (pooled)
[2] = human liver microsomes (pooled), pH 7.4, % Remaining, Table S9, 4st batch
[3] = liver microsomes (pooled), pH 7.4, % Remaining without cofactor, no NADPH cofactor, Table S6, 1st batch
[4] = liver microsomes (pooled), pH 7.4, % Remaining, Mean of 2, 7 min, Table S6, 1st batch
[5] = liver microsomes (pooled), pH 7.4, % Remaining, Mean of 2, 15 min, Table S6, 1st batch
[6] = liver microsomes (pooled), pH 7.4, % Remaining, Table S6, 1st batch
[7] = liver microsomes (pooled), pH 7.4, kel, Table S6, 1st batch
[8] = liver microsomes (pooled), pH 7.4, t1/2, Table S6, 1st batch

microsomal CLint at 2 μM [1] [µL/min/mg] | remaining at 40 min, 2 µM (human liver microsomes (pooled), pH 7.4, % Remaining without cofactor, no NADPH cofactor, Table S9, 4st batch) [%] | remaining at […], 2 µM (human liver microsomes (pooled), pH 7.4, % Remaining, Mean of 2, 7 min, Table S9, 4st batch) [%] | remaining at […], 2 µM (human liver microsomes (pooled), pH 7.4, % Remaining, Mean of 2, 15 min, Table S9, 4st batch) [%] | remaining at 25 min, 2 µM [2] [%] | remaining at 40 min, 2 µM [2] [%] | k el at 2 μM (human liver microsomes (pooled), pH 7.4, kel, Table S9, 4st batch, * approximate due to high stability) [s⁻¹] | half-life at 2 µM (human liver microsomes (pooled), pH 7.4, t1/2, Table S9, 4st batch, * approximate due to high stability) [min] | remaining at 40 min, 2 µM [3] [%] | remaining at […], 2 µM [4] [%] | remaining at […], 2 µM [5] [%] | remaining at 25 min, 2 µM [6] [%] | remaining at 40 min, 2 µM [6] [%] | k el at 2 µM [7] [s⁻¹] | half-life at 2 µM [8] [min] | microsomal CLint at 2 µM (liver microsomes (pooled)) [µL/min/mg] | SMILES
~10 | 101 | 105 | 97 | 93 | 87 | ~6.67e-05 | ~161 |  |  |  |  |  |  |  |  | Cn1cc(C(=O)Nc2ccc(F)cc2-c2ccc(Cl)c(Cl)c2)c(C(F)F)n1 [Bixafen, bixafen]
29 |  |  |  |  |  |  |  | 116 | 88 | 82 | 72 | 61 | 0.0002 | 57.6 |  | O=C(NC1CC2CC1(c1ccc(Cl)cc1)C2)c1cccnc1Cl (centres unmarked) [Compound 28]
 |  |  |  |  |  |  |  | 106 | 83 | 73 | 67 | 54 | 0.00025 | 47.4 | 35 | Cn1cc(C(=O)NC2CC3CC2(c2ccc(Cl)c(Cl)c2)C3)c(C(F)F)n1 (centres unmarked) [Compound 29]
 |  |  |  |  |  |  |  | 109 | 70 | 53 | 43 | 35 | 0.000417 | 27.3 | 61 | Cn1cc(C(=O)NC2CC3CC2(c2cc(F)c(F)c(F)c2)C3)c(C(F)F)n1 (centres unmarked) [Compound 30]
